From patent US9211264B2, “Coated drug spheroids and uses thereof for eliminating or reducing conditions such as emesis and diarrhea” (Wyeth LLC, priority 2009, dated 2015)
Structures can show the parent of a compound that is named as a salt. Where two headings read alike, the source gives them in different places.

Assays:
[1] = Exposure study: neratinib pharmacokinetics with and without concurrent ketoconazole; settings: human, in vivo, 240 mg, 240 mg neratinib
Description: (§1) Exposure studies were performed to determine if gastrointestinal tolerability is related to systemic exposure of neratinib maleate.

[2] = GI tolerability with and without concurrent ketoconazole (subjects reporting GI AEs); format: in vivo
Description: as §1
Subjects Reporting GI AEs

[3] = Adverse events in multiple dose clinical studies of cancer patients; format: in vivo, human; settings: cancer patients (>400), single agent and combination
From the text: Adverse events in clinical studies of cancer patients were observed and classified as follows: • Nausea, Vomiting, Diarrhea, Dehydration, Anorexia (˜95%) • Asthenia, Fatigue (˜30-60%) • Rash (˜20-25%) • Elevated ALT, AST (<10%)

[4] = Gastrointestinal adverse events in single dose clinical studies of healthy subjects; format: in vivo, human; settings: 192 healthy subjects, five single doses
From the text: In a clinical study, 192 healthy subjects were given five single doses of neratinib maleate. Adverse events were observed and classified as follows: • Grade 1 gastrointestinal adverse events (GI AEs) ˜25%40% • Grade 2 gastrointestinal adverse events (GI AEs) ˜15%
Grade 1 and 2 gastrointestinal adverse events predominated as the adverse events observed in clinical studies of healthy subjects.

AUC(0-t) ([1]; geometric mean in brackets, read-out: AUC t [Geo mean]) [ng·h/mL] | AUC(0-inf) ([1]; geometric mean in brackets, read-out: AUC∞ [Geo mean]) [ng·h/mL] | Cmax ([1]; geometric mean in brackets, read-out: Cmax [Geo mean]) [ng/mL] | AUC(0-t) ([1]; value outside brackets, read-out: AUC t) [ng·h/mL] | AUC(0-inf) ([1]; value outside brackets, read-out: AUC∞) [ng·h/mL] | Cmax ([1]; value outside brackets, read-out: Cmax) [ng/mL] | SMILES | Subjects Reporting GI AEs: GI Disorders ([2]; 240 mg neratinib) [%] | Asthenia, Fatigue [3] | Elevated ALT, AST [3] [%] | Nausea, Vomiting, Diarrhea, Dehydration, Anorexia [3] [%] | Rash [3] | GI tolerability (diarrhea) relation to systemic exposure ([2]; exposure studies with concurrent ketoconazole) | Grade 2 gastrointestinal adverse events (GI AEs) [4] [%]
727 | 802 | 51.5 | 835 | 903 | 55.3 | CCOc1cc2ncc(C#N)c(Nc3ccc(OCc4ccccn4)c(Cl)c3)c2cc1NC(=O)/C=C/CN(C)C [Neratinib, (E)-N-(4-(3-chloro-4-(pyridin-2-ylmethoxy)phenylamino)-3-cyano-7-ethoxyquinolin-6-yl)-4-(dimethylamino) but-2-enamide] | 31.8 |  |  |  |  |  | 
 |  |  |  |  |  | CCOc1cc2ncc(C#N)c(Nc3ccc(OCc4ccccn4)c(Cl)c3)c2cc1NC(=O)/C=C/CN(C)C [neratinib maleate, (E)-N-(4-(3-chloro-4-(pyridin-2-ylmethoxy)phenylamino)-3-cyano-7-ethoxyquinolin-6-yl)-4-(dimethylamino) but-2-enamide] |  | 30-60% | < 10 | ~95 | 20-25% | not related to systemic exposure | ~15
